≈ marks a conversion by molar mass, not a printed value. Entries after “also recorded” stand apart in the source; their conditions may differ. One block for each compound: values may come before it.
Assays:
[1] = system: Acinetobacter lwoffii (ATCC 15309); assay: FISH-RiboSyn of antibiotic treated batch cultures (dF/dt); assay type: cell-based; parameters: ratio of dF/dt compared to the control: concentration or dose not given beside the values; settings: for effect on ribosome synthesis: in words
Procedure: Acinetobacter lwoffii (ATCC 15309) was cultured on nutrient agar plates inoculated from a frozen glycerol/bead stock. After incubation for 24 hours at 32° C., a single colony was removed from the plate with a sterile loop and streaked on a second nutrient agar plate. The sterile loop was then submerged in a test tube containing 10 mL of […] which was incubated for 12 hours and 1 mL of grown culture was added to 1 mL of 4% paraformaldehyde (PFA) and incubated for 1 hour. The sample was then centrifuged at 10,000 G for 5 minutes, the supernatant decanted, and the cell pellet resuspended in ethanol PBS. Fluorescence in situ hybridization (FISH) with a genus specific probe was performed on this sample to verify culture purity before proceeding with the experiment. After culture purity was verified, the plated culture was incubated for 24 hours and a single colony was picked with a sterile loop and transferred to a 10 mL test tube of nutrient broth and incubated for 14 hours. The primary culture for this experiment was inoculated by transferring 1 mL from the test tube to a 100 mL nutrient broth flask. The optical density (OD at wavelength of 600 nm) of the culture was monitored over time until OD=0.449. At this time 10 mL of culture was transferred to four separate flasks containing 90 mL of nutrient broth and an appropriate amount of antibiotic. […] (Wisplinghoff et al. (2000)). Flask 4 was untreated as a control culture. At the same time, 9 mL of the primary culture was added to a 50 mL conical containing 1 mL of 1 mg/mL chloramphenicol for a final concentration of 100 μg/mL. Samples of 1 mL were taken from the chloramphenicol treated cell culture at 0, 5, 10, 15, and 20 minutes and incubated in 1 mL of 4% PFA for at least one hour. These samples were then centrifuged at 10,000 G for 5 minutes, the supernatant decanted and cell pellets resuspended in ethanol PBS and stored at −20° C. until evaluated by FISH.
A dilution series of a growing culture of A. lwoffii was previously used to determine the relationship between OD (at 600 nm) and CFU/mL by plating diluted samples on nutrient agar plates at various values of OD and performing plate counts.
Treated flasks were allowed to incubate for 30 minutes and which time 9 mL of the primary culture was added to a 50 mL conical containing 1 mL of 1 mg/mL chloramphenicol for a final concentration of 100 μg/mL. Samples of 1 mL were taken from the chloramphenicol treated cell culture at 0, 5, 10, 15, and 20 minutes and incubated in 1 mL of 4% PFA for at least one hour. These samples were then centrifuged at 10,000 G for 5 minutes, the supernatant decanted and cell pellets resuspended in ethanol PBS and stored at −20° C. until evaluated by FISH. This was repeated for each flask at 90, 150, and 210 minutes of incubation with the antibiotic.
All images were analyzed using the Image-Pro Plus (v6.2.0.424) software package. Only single cells or diplococci were included in analysis. Images were thresholded using the “Automatic Bright Objects” option in the measurement console. Occasionally this algorithm excluded dim objects if bright objects were present. In these cases the manual thresholding was used to find the optimal thresholding range. […] The highest size threshold used for these cells was 5,000 pixels^2.

[2] = system: Acinetobacter lwoffii (ATCC 15309); assay: Optical density of antibiotic treated batch cultures; assay type: cell-based; settings: experimental batch culture compared to control
Procedure: Acinetobacter lwoffii (ATCC 15309) was cultured on nutrient agar plates inoculated from a frozen glycerol/bead stock. After incubation for 24 hours at 32° C., a single colony was removed from the plate with a sterile loop and streaked on a second nutrient agar plate. The sterile loop was then submerged in a test tube containing 10 mL of […] which was incubated for 12 hours and 1 mL of grown culture was added to 1 mL of 4% paraformaldehyde (PFA) and incubated for 1 hour. The sample was then centrifuged at 10,000 G for 5 minutes, the supernatant decanted, and the cell pellet resuspended in ethanol PBS. Fluorescence in situ hybridization (FISH) with a genus specific probe was performed on this sample to verify culture purity before proceeding with the experiment. After culture purity was verified, the plated culture was incubated for 24 hours and a single colony was picked with a sterile loop and transferred to a 10 mL test tube of nutrient broth and incubated for 14 hours. The primary culture for this experiment was inoculated by transferring 1 mL from the test tube to a 100 mL nutrient broth flask. The optical density (OD at wavelength of 600 nm) of the culture was monitored over time until OD=0.449. […] These samples were then centrifuged at 10,000 G for 5 minutes, the supernatant decanted and cell pellets resuspended in ethanol PBS and stored at −20° C. until evaluated by FISH.

[3] = system: Acinetobacter baumannii^T; assay: Minimum inhibitory concentration (MIC) determination; assay type: cell-based; settings: ATCC19606, A. baumannii^T, ATCC 19606
[4] = system: Acinetobacter baumannii CBD1311; assay: as above; assay type: cell-based; settings: A. baumannii CBD1311
A. baumannii CBD1311 = assay: FISH-RiboSyn antibiotic susceptibility testing (rate of ribosome synthesis, pre-16S rRNA); assay type: cell-based, Acinetobacter baumannii; settings: 30 minutes of antibiotic exposure; for dF/dtcm (rate of ribosome synthesis): doxycycline 8 μg/mL or levofloxacin 2 μg/mL
Procedure: (§1) Sample collection. When it was observed that a culture was in mid-log growth phase (OD of approximately 0.4) 50 mL of the culture was transferred to a sterile flask and subjected to chloramphenicol at a final concentration of 200 mg/L. Samples (1 mL) were collected from the sub-culture every five minutes (including a sample at time zero) for a total of 20 minutes. Each sample was centrifuged at 10,000 G for 2 minutes, the supernatant was decanted, and the resulting cell pellet was resuspended in 1 mL of 4% PFA for 12-24 hours. The samples were centrifuged and supernatant decanted, as previously described, and resuspended in 2 mL of ethanol PBS (EtOH-PBS). The samples were stored at −20° C. until further analysis.
(§2) To test the effects of the antibiotic doxycycline, doxycycline (Fisher Scientific) stock solution (1 mg/mL) was added to 100-mL of fresh, sterile nutrient broth for a final concentration of 8 μg/mL. A sample from an actively growing culture (10 mL) was added to the doxycycline/nutrient broth for a final volume of 110 mL. The aforementioned transfers were performed for both the resistant strain A. baumannii CBD1311 (OD=0.378) and a susceptible strain A. baumannii^T (OD=0.324). […] Transfers were performed for A. baumannii CBD1311 (OD=0.338) and A. baumannii^T (OD=0.365) and the dilutions were sufficient to ensure that the culture was below a McFarland standard of 0.5. Additionally, controls were implemented for each transfer where an additional 10 mL of the appropriate culture was combined with 100 mL of fresh sterile nutrient broth without an antibiotic. All cultures were incubated at 32° C. and shaken continuously (200 rpm).
(§3) A fluorescently-labeled oligonucleotide hybridization probe, Acin1543, targeting the pre-16S rRNA for members of the genus Acinetobacter was synthesized (5′-[…]-3′) (SEQ ID NO:1) and conjugated with the cyanine dye, Cy3, before purification with oligonucleotide probe purification cartridges (Oerther et al. (2000b)). Fluorescently labeled probes were diluted to 50 ng/μL with RNase-free water and stored at −20° C. in the dark. Fixed samples were applied to a sample well on a 10 well Heavy Teflon Coated microscope slide (Cel-Line Associates, New Field, N.J.) and air-dried. After dehydration with an increasing ethanol series (50, 80, 95% [vol/vol] ethanol, 1 min each), each sample well was covered with a mixture of 18 μL of hybridization buffer (20% [vol/vol] formamide, 0.9 M NaC1, 100 mM Tris HCl [pH 7.0], 0.1% SDS) (DelosReyes et al. (1997)) and 2 μL of the stock fluorescently labeled oligonucleotide probe. The hybridizations were conducted in a moisture chamber containing excess hybridization buffer (to prevent dehydration of buffer on sample wells) for 1.5 h, in the dark, at 46° C. The slides were washed for 30 min at 48° C. with 50 mL of pre-warmed washing buffer solution (215 mM NaCl, 20 mM Tris HCl [pH 7.0], 0.1% SDS, and 5 mM EDTA) (DelosReyes et al. (1997)). Fixed, hybridized cells were mounted with Type FF immersion oil (Cargille, Cedar Grove, N.J.) and a cover slip. Cells were stained with 4′, 6-diamidino-2-phenylindole (DAPI) at a concentration of 1 μg/mL for 1 minute and rinsed with DI water.
(§4) Image Capture. Whole cell fluorescence was visualized with an upright epiflourescence microscope (Leitz DiaPlan, Heerbrugg, Switzerland), and digital images were captured using a Spot-FLEX charge coupled device (CCD) camera (Diagnostic Instruments, Inc., Sterling Heights, Mich.). Images were collected using a 100× oil objective and constant exposure time (1.1 sec for experiment I; 3.0 sec for experiment 2) and gain of 2.

A. baumannii^T [5] = assay: as above; assay type: cell-based, Acinetobacter baumannii; settings: for initial mean whole cell fluorescence: prior to chloramphenicol, 8-bit intensity
Procedure: as §1, §2, §3, §4

A. baumannii^T [6] = assay: Growth of antibiotic treated culture by optical density (OD); assay type: cell-based, Acinetobacter baumannii; settings: susceptible strain; levofloxacin 2 μg/mL
Procedure: Culturing. Four Acinetobacter strains (Table 1) were maintained on nutrient agar (Difco) at 35° C. Prior to each experiment, a single colony was used to inoculate an overnight culture of nutrient broth (Difco). Experimental cultures were prepared by transferring 1 mL of culture to a flask containing 100 mL of nutrient broth. The relationship between optical density (OD at 600 nm) and cell concentration (CFU/mL) was determined by collecting samples between an OD of 0.1 and 0.6. The samples were serially diluted (10^−4-10^−7) in sterile nutrient broth and 100 μL of diluted sample was spread on nutrient agar plates in replicates of 5. After 24 hours of incubation at 35° C., colonies were counted on plates which contained between 20 and 200 colonies.
To test the effects of the antibiotic doxycycline, doxycycline (Fisher Scientific) stock solution (1 mg/mL) was added to 100-mL of fresh, sterile nutrient broth for a final concentration of 8 μg/mL. A sample from an actively growing culture (10 mL) was added to the doxycycline/nutrient broth for a final volume of 110 mL. The aforementioned transfers were performed for both the resistant strain A. baumannii CBD1311 (OD=0.378) and a susceptible strain A. baumannii^T (OD=0.324). […]

[7] = antibiotic exposure 30 min, ampicillin 2 μg/mL, ciprofloxacin 0.25 μg/mL, doxycycline 500 μg/mL
[8] = 90 minutes of antibiotic exposure, doxycycline 8 μg/mL or levofloxacin 2 μg/mL

Structure (SMILES): CC1(C)S[C@@H]2[C@H](NC(=O)[C@H](N)c3ccccc3)C(=O)N2[C@H]1C(=O)O [Ampicillin]
- ratio of dF/dt compared to the control ([1]; antibiotic exposure 30 min): 93%
- dF/dt [1, 7]: 4.7
- dF/dt ([1]; antibiotic exposure 90 min): 5.06
- ratio of dF/dt compared to the control ([1]; antibiotic exposure 90 min): 152%
- dF/dt ([1]; antibiotic exposure 150 min): 2.86
- dF/dt ([1]; antibiotic exposure 210 min): 0
- ratio of dF/dt compared to the control ([1]; antibiotic exposure 210 min): 0%
- effect on ribosome synthesis [1]: impacted by the ampicillin after exposure for 150 and 210 min; also recorded: greater dF/dt than the control cells
- cell morphology ([1]; long exposures (T=150 min)): elongated cells
- impact on optical density [2]: mild impact

Structure (SMILES): O=C(O)c1cn(C2CC2)c2cc(N3CCNCC3)c(F)cc2c1=O [Ciprofloxacin]
- dF/dt [1, 7]: 4.46
- dF/dt ([1]; antibiotic exposure 90 min): 2.42
- dF/dt ([1]; antibiotic exposure 150 min): 0.254
- dF/dt ([1]; antibiotic exposure 210 min): 0.308
- effect on ribosome synthesis [1]: appear to not be synthesizing ribosomes after 150 min

- MIC [3]: ≤ 0.125 µg/mL
- MIC [4]: 16 µg/mL (≈ 36 µM)
Structure (SMILES): C[C@H]1c2cccc(O)c2C(=O)C2=C(O)[C@]3(O)C(=O)C(C(N)=O)=C(O)[C@@H](N(C)C)[C@@H]3[C@@H](O)[C@@H]21 [doxycycline]
- initial mean whole cell fluorescence (A. baumannii CBD1311; prior to chloramphenicol, 8-bit intensity): approximately 26
- dF/dtcm (rate of ribosome synthesis) (A. baumannii CBD1311): 4.95
- initial mean whole cell fluorescence (A. baumannii^T [5]; 30 minutes of antibiotic exposure): 59.6
- dF/dtcm (rate of ribosome synthesis) (A. baumannii^T [5]; [8]): 1.38
- ratio of dF/dt compared to the control ([1]; antibiotic exposure 30 min): 2%
- dF/dt [1, 7]: 0.1238
- dF/dt ([1]; antibiotic exposure 90 min): 0
- ratio of dF/dt compared to the control ([1]; antibiotic exposure 90 min): 0%
- dF/dt ([1]; antibiotic exposure 150 min): 0
- dF/dt ([1]; antibiotic exposure 210 min): 0
- ratio of dF/dt compared to the control ([1]; antibiotic exposure 210 min): 0%

- MIC [3]: 0.25 µg/mL (≈ 0.692 µM)
- MIC [4]: 8 µg/mL (≈ 22.1 µM)
Structure (SMILES): C[C@H]1COc2c(N3CCN(C)CC3)c(F)cc3c(=O)c(C(=O)O)cn1c23 [levofloxacin]
- dF/dtcm (rate of ribosome synthesis) (A. baumannii CBD1311): 5.84
- dF/dtcm (rate of ribosome synthesis) (A. baumannii^T [5]; 30 minutes of antibiotic exposure, doxycycline 8 μg/mL or levofloxacin 2 μg/mL): 2.23
- initial mean whole cell fluorescence (A. baumannii^T [5]; 90 minutes of antibiotic exposure): 71
- dF/dtcm (rate of ribosome synthesis) (A. baumannii^T [5]; [8]): 1.67
- reduction in dF/dtcm compared to the control (A. baumannii^T [5]; 90 minutes of levofloxacin exposure): > 50%
- dF/dtcm (rate of ribosome synthesis) (A. baumannii^T [5]; after 60 minutes of exposure to levofloxacin (so in the source), 2 μg/mL): 1.67
- delay before cessation of growth (A. baumannii^T [6]): 60 min
